The target in data set [1] is T1, BSA (Bos taurus, UniProt P02769).
T1 construct: Bovine serum albumin (BSA; Fatty Acid/IgG/Protease-Free); purchased FUJIFILM Wako Pure Chemical Corporation, Ltd. (Osaka, Japan)
Put plainly: Fluorescence quenching binding parameters between vitamin E and BSA. The conditions noted are these: 2.0 μM BSA, room temperature, mean ± S.E. (n = 3); for Stern–Volmer constant (Ksv) / Kd: excitation 280 nm, emission 340 nm; for Kd: read-out: apparent binding constant (Ka) (converted). Set-up: species or system bovine. As for the experimental part: The binding parameters of each Toc or T3 analog to BSA were measured with slight modifications to a previously described procedure[32],[34]. Each Toc or T3 analog was dissolved in DMSO at 10 mM, and added to a quartz cell containing 3.0 mL of 2.0 μM BSA stock solution to achieve a final concentration of 1.0–225.0 μM. […] Fluorescence spectra were recorded at room temperature using FP-6200 (JASCO, Tokyo, Japan) at an excitation wavelength of 280 nm and emission wavelengths from 300 to 500 nm. The intensity at 340 nm was used to calculate the Stern–Volmer constant (Ksv) by the following equation[39]: F0/F = 1 + Ksv[VE]. We also calculated the apparent binding constant (Ka) and the number of binding sites (n) by the following equation[40]: log((F0 − F)/F) = nlogKa − nlog(1/([VE] − [BSA](F0 − F)/F0)). Abbreviations in the above equations refer to follows: F0, initial fluorescence intensity; F, fluorescence intensity in the presence of each Toc or T3 analog; [VE], molar concentration of each Toc or T3 analog; [BSA], original BSA concentration. The same measurements were performed using a buffer solution without BSA, and the F values were calculated using the measured fluorescence intensity as a blank.

Data set [2] concerns THP-1 monocytes. Kind of data set: Cellular uptake in THP-1 monocytes at low temperature (4 °C). The following applies: 20.0 μM, 2 h; for effect of BSA addition on cellular uptake at low temperature: serum-depleted medium with 0–200.0 μM BSA. The format is cell-based, human. On the procedure:
THP-1 monocytes preincubated in 10% FBS/RPMI medium were collected. The collected cells (2.5 × 10^6) were suspended in 1.0 mL of 10% PBS/RPMI medium containing 0, 0.2, 2.0, 20.0, 32.4, and 200.0 μM BSA on ice. This suspension was immediately mixed with 4.0 mL of 10% PBS/RPMI medium containing BSA and vitamin E. The final composition was 5.0 mL of 10% PBS/RPMI medium containing 0, 0.2, 2.0, 20.0, 32.4, or 200.0 μM BSA, and 20.0 μM α-Toc or α-T3. Cells were incubated at 4 °C with slow rotation in a tube rotator. After 2 h incubation, the cell lysate was prepared as above, and vitamin E and protein levels were measured.
Vitamin E was extracted from the cell lysates according to the procedure described in our previous study. Tocol (Tama Biochemical, Tokyo, Japan) was used as an internal standard. The extract was analyzed by liquid chromatography-tandem mass spectrometry (LC–MS/MS). The LC–MS/MS system consisted of an ExionLC system and a 4000QTRAP mass spectrometer (SCIEX, Tokyo, Japan). An Inersil SIL-100A-5 column (4.6 mm × 250 mm; GL Science, Tokyo, Japan) was eluted with a mobile phase consisting of hexane/1,4-dioxane/2-propanol (100:4:0.5, v/v/v). The flow rate was 1.0 mL/min, and the column temperature was 40 °C. Vitamin E was detected in the multiple reaction monitoring (MRM) mode (Table 1) under atmospheric pressure chemical ionization. The ion source parameters were as follows: curtain gas, 45.0 psi; collision gas, 8.0 psi; nebulizer current, − 3.0 μA; temperature, 350.0 °C; ion source gas 1, 60.0 psi; interface heater, ON.

The subject of data set [3] is Jurkat cells. Set-up: method as in PMID 15753172. The conditions noted are these: 1 μM α-Toc or α-T3, 24 hours; cited from earlier work.
Data set [4] relates to THP-1 monocytes. Put plainly: Cellular uptake of vitamin E in THP-1 monocytes (37 °C, LC–MS/MS). The class given is cell-based, human. The conditions noted are these: 20.0 μM analog, serum-depleted medium with 0–200.0 μM BSA, 2 h. As for the experimental part:
THP-1 monocytes (2.5 × 10^6 cells) were preincubated in 5.0 mL of 10% FBS/RPMI medium. The cells (2.5 × 10^6 cells) were also preincubated in 5.0 mL of FBS-free 10% PBS/RPMI medium in the absence or presence of 0.2, 2.0, 20.0, 32.4, and 200.0 μM BSA (each medium was prepared by dissolving the 2.0 mM BSA stock solution in 10% PBS/RPMI medium). After 24 h of these preincubations, 5.0 μL of each vitamin E stock solution was added to 10% FBS/RPMI medium or 10% PBS/RPMI medium at a final concentration of 20.0 μM and further incubated for 2 h. […] The incubated cells were collected by centrifugation and washed with PBS. The cells were resuspended in 0.6 mL water and homogenized on ice. A part of the lysate (0.5 mL) was used to analyze vitamin E (described below), and the remaining 0.1 mL was used to quantify protein by the BCA Protein Assay (Thermo Fisher Scientific).
Vitamin E was extracted from the cell lysates according to the procedure described in our previous study. Tocol (Tama Biochemical, Tokyo, Japan) was used as an internal standard. The extract was analyzed by liquid chromatography-tandem mass spectrometry (LC–MS/MS). The LC–MS/MS system consisted of an ExionLC system and a 4000QTRAP mass spectrometer (SCIEX, Tokyo, Japan). […] Vitamin E was detected in the multiple reaction monitoring (MRM) mode (Table 1) under atmospheric pressure chemical ionization. […]

For data set [5], the system named is THP-1 monocytes. Put plainly: Cellular uptake in THP-1 monocytes with ATP synthesis inhibitors. The class given is cell-based, human. The following applies: 10.0 μM vitamin E, 10.0 μM BSA, 1 mM DNP or 10 mM NaN3 + 5 mM 2DG, 1 h, 37 °C, vs control. As for the experimental part: To further investigate cellular uptake mechanism, cell culture study was conducted using two ATP synthesis inhibitors as follows: (1) 1 mM 2,4-dinitrophenol or (2) a mixture of 10 mM sodium azide and 5 mM 2-deoxy-D-glucose[45]. THP-1 monocytes (2.5 × 10^6) preincubated in 10% FBS/RPMI medium were collected, suspended in 1.0 mL of PBS(+)[45] containing each inhibitor, and preincubated for 10 min at 37 °C under slow rotation in a tube rotator. […] Control samples were similarly prepared without the addition of inhibitors and incubated for 1 h. Vitamin E and protein levels were measured as described above.
Figure S1 The effect of two ATP synthesis inhibitors (1 mM 2,4-dinitrophenol (DNP) or a mixture of 10 mM sodium azide and 5 mM 2-deoxy-D-glucose (NaN3+2DG)) on the […]
Cells were incubated in PBS(+) […]
hour. Control samples were similarly incubated without the addition of inhibitors. […]
the main article. Values are expressed as mean ± SE of three independent experiments.
The statical significance of the results was analyzed using Dunnett's test, where p < 0.05 was considered statistically significant . […]
and samples treated with ATP synthesis inhibitor.
(1 picture or pasted object on this page, not shown here)

The test system of data set [6] is LNCaP cells. On the set-up: method as in PMID 21400505. The conditions noted are these: 50 μM γ-Toc or 10 μM γ-T3, 6 hours; cited from earlier work.
In data set [7] the test system is PC-3 cells. Set-up: method as in PMID 21400505. The following applies: 50 μM γ-Toc or 10 μM γ-T3, 6 hours; cited from earlier work.

The structures appear in SMILES notation.

T1 sequence (P02769 25-607): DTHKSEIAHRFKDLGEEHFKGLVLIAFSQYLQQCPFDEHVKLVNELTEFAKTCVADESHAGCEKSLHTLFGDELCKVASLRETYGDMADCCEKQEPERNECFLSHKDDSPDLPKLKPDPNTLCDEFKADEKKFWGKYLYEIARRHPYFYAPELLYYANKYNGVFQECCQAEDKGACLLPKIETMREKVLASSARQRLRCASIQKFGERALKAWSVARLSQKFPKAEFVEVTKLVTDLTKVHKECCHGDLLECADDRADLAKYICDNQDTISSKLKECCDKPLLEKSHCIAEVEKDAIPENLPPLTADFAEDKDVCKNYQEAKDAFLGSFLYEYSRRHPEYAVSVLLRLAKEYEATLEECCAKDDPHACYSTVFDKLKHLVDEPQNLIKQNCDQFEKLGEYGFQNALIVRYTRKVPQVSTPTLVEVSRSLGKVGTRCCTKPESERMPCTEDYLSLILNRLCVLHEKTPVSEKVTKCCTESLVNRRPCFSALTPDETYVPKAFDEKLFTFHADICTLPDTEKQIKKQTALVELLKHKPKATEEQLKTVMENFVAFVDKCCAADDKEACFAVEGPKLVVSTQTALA

Consider `CC(C)=CCC/C(C)=C/CC/C(C)=C/CC[C@]1(C)CCc2c(C)c(O)c(C)c(C)c2O1` [α-T3], for which, in data set [1], the “Stern–Volmer constant (Ksv)” value was 1.19 ± 0.07 × 10^4 M^−1, the Kd is 69.4 µM and the “number of binding site (n)” value was determined as 0.70 ± 0.04. For the same compound, in data set [2] (BSA-containing medium), the “cellular concentration compared with α-Toc at low temperature” value is on record as “slightly higher than that of α-Toc”. In addition, the “effect of BSA addition on cellular uptake at low temperature” value in data set [2] was “did not observe the BSA-induced increase”. Further, in data set [3], the “cellular uptake relative to α-Toc” value is recorded as 6.5 fold.

As to `Cc1c(C)c2c(c(C)c1O)CC[C@@](C)(CCC[C@H](C)CCC[C@H](C)CCCC(C)C)O2` [α-Toc], the “effect of BSA addition on cellular concentration” value in data set [4] is listed as “particularly pronounced”. For the same compound, in data set [1], the “Stern–Volmer constant (Ksv)” value is 0.93 ± 0.06 × 10^4 M^−1, the Kd is 99 µM and the “number of binding site (n)” value came out at 0.69 ± 0.02. The “effect of BSA addition on cellular uptake at low temperature” value in data set [2] was “reduced upon the addition of BSA”.

For `Cc1cc(O)cc2c1O[C@](C)(CCC[C@H](C)CCC[C@H](C)CCCC(C)C)CC2` [δ-Toc], in data set [1], the “Stern–Volmer constant (Ksv)” value is recorded as 0.89 ± 0.04 × 10^4 M^−1, the Kd was 105 µM and the “number of binding site (n)” value came out at 0.71 ± 0.01. In data set [5], the “effect of ATP synthesis inhibitors on cellular uptake” value is “No significance”.

As to `Cc1cc(O)c(C)c2c1O[C@](C)(CCC[C@H](C)CCC[C@H](C)CCCC(C)C)CC2` [β-Toc], in data set [1], the “Stern–Volmer constant (Ksv)” value is reported as 1.00 ± 0.02 × 10^4 M^−1, the Kd is 95.2 µM and the “number of binding site (n)” value worked out at 0.69 ± 0.01.

`Cc1c(O)cc2c(c1C)O[C@](C)(CCC[C@H](C)CCC[C@H](C)CCCC(C)C)CC2` [γ-Toc]: in data set [1], the “Stern–Volmer constant (Ksv)” value was 0.82 ± 0.01 × 10^4 M^−1, the Kd was 115 µM and the “number of binding site (n)” value was 0.71 ± 0.02.

Take `CC(C)=CCC/C(C)=C/CC/C(C)=C/CC[C@]1(C)CCc2cc(O)cc(C)c2O1` [δ-T3]: the “effect of BSA addition on cellular concentration” value in data set [4] was “increase the most”. Further, in data set [1], the “Stern–Volmer constant (Ksv)” value is given as 1.51 ± 0.02 × 10^4 M^−1, the Kd was 55.2 µM and the “number of binding site (n)” value is 0.78 ± 0.01. The “effect of ATP synthesis inhibitors on cellular uptake” value in data set [5] is recorded as “No significance”.

Consider `CC(C)=CCC/C(C)=C/CC/C(C)=C/CC[C@]1(C)CCc2c(C)c(O)cc(C)c2O1` [β-T3], for which, in data set [1], the “Stern–Volmer constant (Ksv)” value is 1.39 ± 0.13 × 10^4 M^−1, the Kd was 59.5 µM and the “number of binding site (n)” value was 0.76 ± 0.00.

With `CC(C)=CCC/C(C)=C/CC/C(C)=C/CC[C@]1(C)CCc2cc(O)c(C)c(C)c2O1` [γ-T3], in data set [1], the “Stern–Volmer constant (Ksv)” value is 1.35 ± 0.01 × 10^4 M^−1, the Kd is 62.1 µM and the “number of binding site (n)” value is recorded as 0.74 ± 0.02. Also, in data set [6], the “cellular uptake compared with γ-Toc” value is reported as “higher cellular uptake than γ-Toc”. The “cellular uptake compared with γ-Toc” value in data set [7] is listed as “higher cellular uptake than γ-Toc”.

The values are drawn from paper PMC10164177, “The difference in the cellular uptake of tocopherol and tocotrienol is influenced by their affinities to albumin” (Scientific Reports, 2023).
